Source: US10336762B2 (priority 2017, dated 2019)

Assays:
TNFα = test: cells; format: cell-based, human; conditions: Homo sapiens, Monocyte, LPS-stimulated human monocytes, TNFα content; read-out: EC50 TNF
IRAK4 enzyme = IRAK4 enzyme (Homo sapiens (Human), UniProt Q9NWZ3); test: biochemical; format: biochemical; conditions: IRAK4 enzyme, TR-FRET (HTRF), 500 μM ATP
Sequence of IRAK4 enzyme (Q9NWZ3 whole entry): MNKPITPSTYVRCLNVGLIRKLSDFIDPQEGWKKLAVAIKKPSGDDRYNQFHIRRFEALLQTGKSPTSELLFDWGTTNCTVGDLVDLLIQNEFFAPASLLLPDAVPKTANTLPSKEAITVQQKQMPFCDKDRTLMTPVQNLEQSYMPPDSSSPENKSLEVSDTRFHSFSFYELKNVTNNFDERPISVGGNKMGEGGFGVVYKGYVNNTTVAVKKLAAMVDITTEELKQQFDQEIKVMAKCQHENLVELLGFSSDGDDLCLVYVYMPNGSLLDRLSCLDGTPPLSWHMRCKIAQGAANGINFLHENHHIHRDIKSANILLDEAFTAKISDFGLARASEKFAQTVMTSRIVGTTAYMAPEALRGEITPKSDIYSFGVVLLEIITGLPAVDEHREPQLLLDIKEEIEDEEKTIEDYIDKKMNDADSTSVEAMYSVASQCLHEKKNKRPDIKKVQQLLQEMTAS

CC(C)(O)[C@H](F)CNC(=O)c1cnc(-c2ccc3cc(C#N)cnn23)cc1N[C@]1(C)C[C@@H](O)C1 [Example 429, 6-(3-cyanopyrrolo[1,2-b]pyridazin-7-yl)-N-((R)-2-fluoro-3-hydroxy-3-methylbutyl)-4-(((1r,3R)-3-hydroxy-1-methylcyclo-butyl)amino)nicotinamide] showed an EC50 (TNFα) of 36 nM and an IC50 (IRAK4 enzyme) of 1 nM.
Work on N#Cc1cnn2c(-c3cc(N[C@H]4CCC[C@@H](O)C4)c(C(=O)NC4CC4(F)F)cn3)ccc2c1 (stereo partly drawn) [Example 430, 6-(3-cyanopyrrolo[1,2-b]pyridazin-7-yl)-N-(2,2-difluorocyclopropyl)-4-(((1S,3R)-3-hydroxy-cyclohexyl)amino) nicotinamide] yielded an EC50 (TNFα) of 488 nM and an IC50 (IRAK4 enzyme) of 14 nM.
Molecule CC(C)(O)[C@H](F)CNC(=O)c1cnc(-c2ccc3cc(C#N)cnn23)cc1N[C@]1(C)CC[C@H](O)CC1 [Example 432, 6-(3-cyanopyrrolo[1,2-b]pyridazin-7-yl)-N-((R)-2-fluoro-3-hydroxy-3-methylbutyl)-4-(((1s,4S)-4-hydroxy-1-methylcyclohexyl)amino) nicotinamide] has an EC50 (TNFα) of 37 nM and an IC50 (IRAK4 enzyme) of under 1 nM.
For CC(C)(O)[C@H](F)CNC(=O)c1cnc(-c2ccc3cc(C#N)cnn23)cc1N[C@]1(C)C[C@H](O)C1 [Example 433, 6-(3-cyanopyrrolo[1,2-b]pyridazin-7-yl)-N-((R)-2-fluoro-3-hydroxy-3-methylbutyl)-4-(((1s,3S)-3-hydroxy-1-methylcyclobutyl)amino) nicotinamide], the EC50 (TNFα) was 47 nM and the IC50 (IRAK4 enzyme) was under 1 nM.
Work on CC(C)(O)[C@H](F)CNC(=O)c1cnc(-c2ccc3cc(C#N)cnn23)cc1Nc1ccc2c(c1)CNC2=O [Example 434, (R)-6-(3-cyanopyrrolo[1,2-b]pyridazin-7-yl)-N-(2-fluoro-3-hydroxy-3-methylbutyl)-4-((1-oxoisoindolin-5-yl)amino)nicotinamide] yielded an EC50 (TNFα) of 107 nM and an IC50 (IRAK4 enzyme) of under 1 nM.
In the case of CC(C)(O)[C@H](F)CNC(=O)c1cnc(-c2ccc3cc(C#N)cnn23)cc1Nc1ccc(O)nc1 [Example 435, (R)-6-(3-cyanopyrrolo[1,2-b]pyridazin-7-yl)-N-(2-fluoro-3-hydroxy-3-methylbutyl)-4-((6-hydroxypyridin-3-yl)amino)nicotinamide], the EC50 (TNFα) is reported as over 10000 nM and the IC50 (IRAK4 enzyme) is reported as 10000 nM.
CC(C)(O)[C@H](F)CNC(=O)c1cnc(-c2ccc3cc(C#N)cnn23)cc1NCCCCS(C)(=O)=O [Example 438, (R)-6-(3-cyanopyrrolo[1,2-b]pyridazin-7-yl)-N-(2-fluoro-3-hydroxy-3-methylbutyl)-4-((4-(methylsulfonyl)butyl)amino)nicotinamide] showed an EC50 (TNFα) of 135 nM and an IC50 (IRAK4 enzyme) of 1 nM.
CCS(=O)(=O)CCCNc1cc(-c2ccc3cc(C#N)cnn23)ncc1C(=O)NC[C@@H](F)C(C)(C)O [Example 439, (R)-6-(3-cyanopyrrolo[1,2-b]pyridazin-7-yl)-4-((3-(ethylsulfonyl)propyl)amino)-N-(2-fluoro-3-hydroxy-3-methylbutyl) nicotinamide] gave an EC50 (TNFα) of 40 nM and an IC50 (IRAK4 enzyme) of under 1 nM.
For CC(CCS(C)(=O)=O)Nc1cc(-c2ccc3cc(C#N)cnn23)ncc1C(=O)NC[C@@H](F)C(C)(C)O (stereo partly drawn) [Example 440, 6-(3-cyanopyrrolo[1,2-b]pyridazin-7-yl)-N-((R)-2-fluoro-3-hydroxy-3-methylbutyl)-4-((4-(methylsulfonyl)butan-2-yl)amino)nicotinamide], the EC50 (TNFα) was 715 nM and the IC50 (IRAK4 enzyme) was 2 nM.
Molecule Cn1ccc(Nc2cc(-c3ccc4cc(C#N)cnn34)ncc2C(=O)NC[C@@H](F)C(C)(C)O)cc1=O [Example 442, (R)-6-(3-cyanopyrrolo[1,2-b]pyridazin-7-yl)-N-(2-fluoro-3-hydroxy-3-methylbutyl)-4-((1-methyl-2-oxo-1,2-dihydropyridin-4-yl)amino)nicotinamide] has an EC50 (TNFα) of 104 nM and an IC50 (IRAK4 enzyme) of 1 nM.
With CC(C)(O)[C@H](F)CNC(=O)c1cnc(-c2ccc3cc(C#N)cnn23)cc1N[C@H]1C[C@H](S(C)(=O)=O)C1 [Example 443, 6-(3-cyanopyrrolo[1,2-b]pyridazin-7-yl)-N-((R)-2-fluoro-3-hydroxy-3-methylbutyl)-4-(((1r,3R)-3-(methylsulfonyl)cyclobutyl)amino)nicotinamide] the EC50 (TNFα) was 110 nM and the IC50 (IRAK4 enzyme) was 1 nM.
With CC(C)(O)[C@H](F)CNC(=O)c1cnc(-c2ccc3cc(C#N)cnn23)cc1N[C@H]1CC[C@](C)(O)CC1 [Example 445, 6-(3-cyanopyrrolo[1,2-b]pyridazin-7-yl)-N-((R)-2-fluoro-3-hydroxy-3-methylbutyl)-4-(((1r,4R)-4-hydroxy-4-methylcyclo-hexyl)amino)nicotinamide] the EC50 (TNFα) was 59 nM and the IC50 (IRAK4 enzyme) was 1 nM.
CC(C)(O)[C@H](F)CNC(=O)c1cnc(-c2ccc3cc(C#N)cnn23)cc1N[C@H]1C[C@](C)(O)C1 [Example 446, 6-(3-cyanopyrrolo[1,2-b]pyridazin-7-yl)-N-((R)-2-fluoro-3-hydroxy-3-methylbutyl)-4-(((1r,3R)-3-hydroxy-3-methylcyclobutyl)amino) nicotinamide] showed an EC50 (TNFα) of 63 nM and an IC50 (IRAK4 enzyme) of 1 nM.
CC(=O)N1CC2(CC(Nc3cc(-c4ccc5cc(C#N)cnn45)ncc3C(=O)NC[C@@H](F)C(C)(C)O)C2)C1 [Example 447, (R)-4-((2-acetyl-2-azaspiro[3.3]heptan-6-yl)amino)-6-(3-cyano-pyrrolo[1,2-b]pyridazin-7-yl)-N-(2-fluoro-3-hydroxy-3-methylbutyl) nicotinamide] showed an EC50 (TNFα) of 286 nM and an IC50 (IRAK4 enzyme) of 5 nM.
With CC(C)(C)OC(=O)N1CC2(CC(Nc3cc(-c4ccc5cc(C#N)cnn45)ncc3C(=O)NC[C@@H](F)C(C)(C)O)C2)C1 [Example 448, (R)-tert-butyl 6-((2-(3-cyanopyrrolo[1,2-b]pyridazin-7-yl)-5-((2-fluoro-3-hydroxy-3-methylbutyl)carbamoyl)pyridin-4-yl)amino)-2-azaspiro[3.3]heptane-2-carboxylate] the EC50 (TNFα) was 2040 nM and the IC50 (IRAK4 enzyme) was 32 nM.
CC(=O)N1CC(Nc2cc(-c3ccc4cc(C#N)cnn34)ncc2C(=O)NC[C@@H](F)C(C)(C)O)C1 [Example 449, (R)-4-((1-acetylazetidin-3-yl)amino)-6-(3-cyano-pyrrolo[1,2-b]pyridazin-7-yl)-N-(2-fluoro-3-hydroxy-3-methylbutyl)nicotinamide] showed an EC50 (TNFα) of 361 nM and an IC50 (IRAK4 enzyme) of 3 nM.
CC(C)(O)[C@H](F)CNC(=O)c1cnc(-c2ccc3cc(C#N)cnn23)cc1N[C@H]1C[C@@](C)(O)C1 [Example 450, 6-(3-cyanopyrrolo[1,2-b]pyridazin-7-yl)-N-((R)-2-fluoro-3-hydroxy-3-methylbutyl)-4-(((1s,3S)-3-hydroxy-3-methylcyclo-butyl)amino)nicotinamide] was tested, and the EC50 (TNFα) was 44 nM and the IC50 (IRAK4 enzyme) was under 1 nM.
CNC(=O)c1ccc(Nc2cc(-c3ccc4cc(C#N)cnn34)ncc2C(=O)NCC#N)cc1 [Example 451, N-(cyanomethyl)-6-(3-cyanopyrrolo[1,2-b]pyridazin-7-yl)-4-((4-(methylcarbamoyl)phenyl)amino) nicotinamide] gave an EC50 (TNFα) of 30 nM and an IC50 (IRAK4 enzyme) of under 1 nM.
CC1(O)CC2(CC(Nc3cc(-c4ccc5cc(C#N)cnn45)ncc3C(=O)NCC#N)C2)C1 (stereo not drawn) [Example 452, N-(cyanomethyl)-6-(3-cyanopyrrolo[1,2-b]pyridazin-7-yl)-4-((6-hydroxy-6-methyl-spiro[3.3]heptan-2-yl)amino)nicotinamide] gave an EC50 (TNFα) of 112 nM and an IC50 (IRAK4 enzyme) of under 1 nM.
With N#CCNC(=O)c1cnc(-c2ccc3cc(C#N)cnn23)cc1NC1CC2(CC(O)C2)C1 (stereo not drawn) [Example 453, N-(cyanomethyl)-6-(3-cyanopyrrolo[1,2-b]pyridazin-7-yl)-4-((6-hydroxyspiro[3.3]heptan-2-yl)amino) nicotinamide] the EC50 (TNFα) was 68 nM and the IC50 (IRAK4 enzyme) was under 1 nM.
Molecule N#CCNC(=O)c1cnc(-c2ccc3cc(C#N)cnn23)cc1NC12CCC(C(=O)NC3COC3)(CC1)CC2 [Example 454, N-(cyanomethyl)-6-(3-cyanopyrrolo[1,2-b]pyridazin-7-yl)-4-((4-(oxetan-3-ylcarbamoyl)bicyclo[2.2.2]octan-1-yl)amino)nicotinamide] has an EC50 (TNFα) of 207 nM and an IC50 (IRAK4 enzyme) of under 1 nM.
Work on COC(=O)N[C@H]1C[C@H](Nc2cc(-c3ccc4cc(C#N)cnn34)ncc2C(=O)NC[C@@H](F)C(C)(C)O)C1 [Example 455, methyl ((1R,3r)-3-((2-(3-cyanopyrrolo[1,2-b]pyridazin-7-yl)-5-(((R)-2-fluoro-3-hydroxy-3-methylbutyl)carbamoyl)pyridin-4-yl)amino)cyclobutyl)carbamate] yielded an EC50 (TNFα) of 118 nM and an IC50 (IRAK4 enzyme) of 1 nM.
For CC(=O)N[C@H]1C[C@H](Nc2cc(-c3ccc4cc(C#N)cnn34)ncc2C(=O)NC[C@@H](F)C(C)(C)O)C1 [Example 456, 4-(((1r,3R)-3-acetamidocyclobutyl)amino)-6-(3-cyanopyrrolo[1,2-b]pyridazin-7-yl)-N-((R)-2-fluoro-3-hydroxy-3-methylbutyl)nicotinamide], the EC50 (TNFα) was 394 nM and the IC50 (IRAK4 enzyme) was 1 nM.
COC(=O)N[C@H]1C[C@@H](Nc2cc(-c3ccc4cc(C#N)cnn34)ncc2C(=O)NC[C@@H](F)C(C)(C)O)C1 [Example 457, methyl ((1S,3s)-3-((2-(3-cyanopyrrolo[1,2-b]pyridazin-7-yl)-5-(((R)-2-fluoro-3-hydroxy-3-methylbutyl)carbamoyl)pyridin-4-yl)amino)cyclo-butyl)carbamate] gave an EC50 (TNFα) of 370 nM and an IC50 (IRAK4 enzyme) of 3 nM.
CC(=O)N[C@H]1C[C@@H](Nc2cc(-c3ccc4cc(C#N)cnn34)ncc2C(=O)NC[C@@H](F)C(C)(C)O)C1 [Example 458, 4-(((1s,3S)-3-acetamidocyclobutyl)amino)-6-(3-cyano-pyrrolo[1,2-b]pyridazin-7-yl)-N-((R)-2-fluoro-3-hydroxy-3-methylbutyl)nicotinamide] showed an EC50 (TNFα) of 2470 nM and an IC50 (IRAK4 enzyme) of 3 nM.
N#CCNC(=O)c1cnc(-c2ccc3cc(C#N)cnn23)cc1N[C@H]1CCC[C@@H](O)C1 [Example 459, N-(cyanomethyl)-6-(3-cyanopyrrolo[1,2-b]pyridazin-7-yl)-4-(((1S,3R)-3-hydroxycyclohexyl)amino) nicotinamide] was tested, and the EC50 (TNFα) was 125 nM and the IC50 (IRAK4 enzyme) was 1 nM.
Molecule N#CCNC(=O)c1cnc(-c2ccc3cc(C#N)cnn23)cc1NC1COC1 [Example 460, N-(cyanomethyl)-6-(3-cyanopyrrolo[1,2-b]pyridazin-7-yl)-4-(oxetan-3-ylamino) nicotinamide] has an EC50 (TNFα) of 71 nM and an IC50 (IRAK4 enzyme) of under 1 nM.
